Key:
Assay type in all cases: cell-based
rat VR1 = target: T1, rat VR1 (Rattus norvegicus, UniProt O35433); assay: FLIPR calcium assay (fluo3-AM) with HEK293 cells stably expressing rat VR1
T1 construct: expressed in transfected cells
Method: Intracellular calcium is monitored with the calcium sensitive dye, fluo3-AM. HEK293 cells stably expressing rat VR1 were plated into a 96 well, poly-l-lysine treated FLIPR plate at 3×10^4 cells per well. On the following day, the plate was processed for FLIPR. FBP buffer was prepared (15 μM Probenecid (calcium ATPase pump blocker) in 1× FLIPR buffer (145 mM NaCl, 5 mM KCl, 1 mM MgCl2, 2 mM CaCl2, 10 mM glucose, 20 mM Hepes). FBP buffer pH was then adjusted to 7.4 with NaOH. 400 μl DMSO was added to a vial of fluo3-AM (Cambridge Bioscience, F-1241). The fluo3-AM solution was incubated at 37° C. for 10 min and vortexed. LOAD was prepared by adding 20 μl of fluo3-AM solution and 20 μl 20% pleuronic F-127 in DMSO (Cambridge Bioscience, P-3000) into 10 ml FBP. The 96 well plate containing cells was flicked off to remove cell medium. 100 μl LOAD was added per well. Cells were then incubated at 37° C. for 60 minutes. Capsaicin (a rVR1 agonist) and capsazepine (CPZ, a rVR1 antagonist) were prepared at 10× the desired final assay concentrations in FBP. The plate was flicked to remove LOAD from cells, and 180 μl FBP was added per well. […] Cells were monitored for 70 seconds after agonist addition. The FLIPR traces (fluorescence change (counts) versus time (seconds)) were produced for each well. […] The plate was incubated for 15 minutes at room temperature prior reading in the FLIPR.

hVR1 [1] = target: T2, hVR1 (Homo sapiens, UniProt Q8NER1, M315I/T469I); assay: Calcium imaging (fura2-AM) with HEK293 cells expressing hVR1; parameters: pClN5-new (B) with the full length hVR1 gene cloned via NotI and EcoRI restriction sites; expressed in transfected cells; host or cells: HEK293; conditions: 37° C.
T2 sequence (Q8NER1 whole entry M315I/T469I): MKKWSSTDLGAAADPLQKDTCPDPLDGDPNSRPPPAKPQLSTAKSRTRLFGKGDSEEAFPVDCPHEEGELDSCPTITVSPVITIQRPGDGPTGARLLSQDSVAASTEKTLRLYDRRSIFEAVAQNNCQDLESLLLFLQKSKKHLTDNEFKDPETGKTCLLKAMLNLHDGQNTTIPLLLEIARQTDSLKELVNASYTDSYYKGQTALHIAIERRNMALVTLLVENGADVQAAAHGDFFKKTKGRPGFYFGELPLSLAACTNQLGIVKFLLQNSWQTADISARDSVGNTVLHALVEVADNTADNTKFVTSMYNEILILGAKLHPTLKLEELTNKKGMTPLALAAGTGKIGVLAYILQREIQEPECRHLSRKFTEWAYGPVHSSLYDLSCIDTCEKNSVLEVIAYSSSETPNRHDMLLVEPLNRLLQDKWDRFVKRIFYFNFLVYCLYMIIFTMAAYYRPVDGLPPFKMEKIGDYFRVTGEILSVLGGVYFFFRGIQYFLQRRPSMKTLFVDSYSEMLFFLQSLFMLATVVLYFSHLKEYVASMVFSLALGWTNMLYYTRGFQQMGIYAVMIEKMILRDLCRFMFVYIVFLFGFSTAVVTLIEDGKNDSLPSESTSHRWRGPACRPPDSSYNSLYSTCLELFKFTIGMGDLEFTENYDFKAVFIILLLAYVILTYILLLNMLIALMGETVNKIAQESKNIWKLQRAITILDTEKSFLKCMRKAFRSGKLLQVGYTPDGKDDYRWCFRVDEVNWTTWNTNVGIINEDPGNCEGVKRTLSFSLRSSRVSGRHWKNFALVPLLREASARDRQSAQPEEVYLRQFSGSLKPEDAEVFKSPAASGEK
Method: HEK293 cells expressing hVR1 transiently or stably, were plated onto poly-l-lysine coated cover slips at 1×10^5 cells per well. They were analysed on the following day by calcium imaging (QuantiCell 700, Applied Imaging). On the day of experiment, WASH buffer was prepared by adding CaCl2 to extracellular medium (ECM) to a final concentration of 2 mM, (ECM contains 125 mM NaCl, 5 mM KCl, 2 mM MgCl2, 0.5 mM NaH2PO4, 5 mM NaHCO3, 10 mM Hepes, 10 mM glucose, 0.1% BSA, pH7.4). The calcium sensitive dye solution was prepared by adding 50 μl 5% pluronic F-127 in DMSO (Molecular Probes) to a vial of fura2-AM (Molecular Probes). After mixing, 20 μl of the fura2-AM solution was added to 10 ml WASH. 1.5 ml was then added to cells, which were then incubated at 37° C. for 30 minutes. The plate was washed three times with WASH. 1 ml WASH was added and stored in dark. Agonists and antagonists were prepared in WASH at 5× their required assay concentrations. The reagents and assay temperature was kept at 37° C. For the transiently transfected cells, the YFP reporter DNA fluorescence (490 nm excitation) was used to identify the transfected cells. Cells were initially imaged in 400 μl WASH (or 300 μl WASH plus 100 μl antagonist e.g. capsazepine). After approximately 1 min, 100 μl agonist (e.g. capsaicin, anadamide or resiniferatoxin) at 5× the desired concentration was added to give final 1× concentration. […]

hVR1 [2] = target: T2, hVR1; assay: Whole-cell patch clamp electrophysiology of human VR-1 channels transiently expressed in HEK293T cells; parameters: pClN5-new (B) with the full length hVR1 gene cloned via NotI and EcoRI restriction sites; expressed in transfected cells; host or cells: HEK293T
Method: The activation of human VR-1 channels transiently expressed in HEK293T cells by capsaicin was investigated. Cells grown on poly-L-lysine-coated glass coverslips were placed in a recording chamber (0.5 ml) and superfused with extracellular solution (2 ml min^−1). The extracellular solution contained: NaCl (140 mM), KCl (5 mM), MgCl2 (2 mM), CaCl2 (2 mM), 4-(2-hydroxethyl)-1-piperazineethanesulphonic acid (HEPES, 10 mM) and glucose (10 mM). The pH was adjusted to 7.4 with NaOH and osmolarity ranged from 310-320 mOsm I^−1. Patch pipettes (borosilicate glass) were pulled using a Sutter P-97 electrode puller. The pipettes were filled with an internal solution consisting of: CsCl (140 mM), ethylene glycol-bis(β-aminoethyl ether) N,N,N′,N′-tetra acetic acid Cs salt (Cs-EGTA, 5 mM) and HEPES (10 mM). The pH was adjusted to 7.25 using CsOH and the osmolarity ranged from 275-290 mOsm. When filled with this internal solution, patch electrodes had resistances of 2-5 MΩ. Currents were recorded using standard whole-cell voltage clamp recording techniques (31) at room temperature (21-23° C.) using an Axopatch 200A amplifier and signals were sampled at 2 or 0.1 kHz. The majority of series resistance errors (80-85%) were minimized with compensation circuitry. Membrane potentials were not corrected for junction potentials (<4 mV). Voltage pulses and data collection were performed on-line using pClamp8 software (Axon Instruments) interfaced with amplifiers. Membrane potentials were maintained at −60 mV between protocols.
Capsaicin or capsazepine (CPZ) were applied, using a ‘fast-flow sytem’, directly onto the recording cell (<1 s to equilibrate). […]

[3] = 1 μM CPZ against 1 μM capsaicin, holding potential −60 mV

T1 sequence (O35433 whole entry): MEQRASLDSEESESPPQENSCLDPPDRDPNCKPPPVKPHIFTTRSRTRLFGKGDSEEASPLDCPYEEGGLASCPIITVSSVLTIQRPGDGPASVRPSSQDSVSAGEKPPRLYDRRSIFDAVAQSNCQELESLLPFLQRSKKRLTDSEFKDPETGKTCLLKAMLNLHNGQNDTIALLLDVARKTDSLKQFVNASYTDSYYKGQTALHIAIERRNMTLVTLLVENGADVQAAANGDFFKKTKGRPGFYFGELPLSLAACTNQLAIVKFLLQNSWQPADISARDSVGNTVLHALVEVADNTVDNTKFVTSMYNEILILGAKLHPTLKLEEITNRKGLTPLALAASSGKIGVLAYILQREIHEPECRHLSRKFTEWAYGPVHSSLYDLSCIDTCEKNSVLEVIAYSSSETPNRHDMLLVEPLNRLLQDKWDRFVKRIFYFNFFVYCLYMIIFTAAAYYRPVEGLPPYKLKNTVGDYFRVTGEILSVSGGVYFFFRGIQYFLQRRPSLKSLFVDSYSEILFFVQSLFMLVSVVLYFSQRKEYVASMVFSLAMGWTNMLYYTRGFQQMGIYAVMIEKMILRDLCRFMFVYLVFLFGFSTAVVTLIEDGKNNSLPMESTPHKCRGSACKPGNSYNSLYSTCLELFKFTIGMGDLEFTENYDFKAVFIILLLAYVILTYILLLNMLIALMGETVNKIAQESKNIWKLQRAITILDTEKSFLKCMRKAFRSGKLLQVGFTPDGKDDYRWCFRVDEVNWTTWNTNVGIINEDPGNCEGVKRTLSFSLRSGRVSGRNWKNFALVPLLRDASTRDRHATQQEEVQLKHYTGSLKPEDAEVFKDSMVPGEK

| Compound | FLIPR trace after agonist addition (fluorescence change) (rat VR1; HEK293 stably expressing rVR1, monitored 70 seconds after addition) | calcium influx response after addition of agonist (hVR1 [1]) | current-voltage relationship (hVR1 [2]; 1 μM capsaicin, voltage ramps −100 to +70 mV) | reduction of current by the 6th addition (desensitisation, rundown) (hVR1 [2]; capsaicin 1 μM added at 2 min intervals for about 40 s, 2 mM external calcium, current at +65 mV) | size of capsaicin-evoked current when external calcium replaced (hVR1 [2]; capsaicin 1 μM, external calcium replaced with 5 mM EGTA) | current evoked by application of capsaicin (hVR1 [2]; capsaicin 1 μM, membrane held at −60 mV, HEK293T transiently expressing human VR1) | antagonism of the capsaicin VR1 response (FLIPR peak heights) (rat VR1; cells pre-incubated in CPZ 15 minutes at room temperature) | blockade of capsaicin-evoked inward current (hVR1 [2]; [3]) | reversibility of blockade (hVR1 [2]; [3]) | blockade of capsaicin-evoked current in voltage ramps (hVR1 [2]; 1 μM CPZ against 1 μM capsaicin, voltage ramps −100 to +70 mV) | recovery after blockade in voltage ramps (hVR1 [2]; 1 μM CPZ, especially inward currents evoked by negative potentials) |
| --- | --- | --- | --- | --- | --- | --- | --- | --- | --- | --- | --- |
| COc1cc(CNC(=O)CCCC/C=C/C(C)C)ccc1O [capsaicin] | Peaks indicate capsaicin-gated calcium influx | stimulated to influx calcium | substantial outward rectification | about 4 fold | increased dramatically | produces an inward current | – | – | – | – | – |
| Oc1cc2c(cc1O)CN(C(=S)NCCc1ccc(Cl)cc1)CCC2 [CPZ, capsazepine] | – | – | – | – | – | – | peak heights are reduced | abolished | partially reversible | completely blocked the current | only partial recovery was observed |

Reference: patent publication US20060099682A1, “Human vanilloid receptors and their uses” (Glaxo Group Limited, priority 1998, published 2006)
